Read-outs that look alike come from different tables or passages of the source.
Experiments:
[1] = target: T1, human dopamine transporter (hDAT) (Homo sapiens, UniProt Q01959); test: Radioligand binding to cloned hDAT, [3H]WIN35428, HEK-293 cell membranes; details: for Binding at hDAT compared to PRC200-SS: in words
T1 construct: expressed in transfected cells; host or cells: HEK-293, stably transfected

hSERT, hNET, hDAT = test: Human transporter binding: rank order and range of potency over the three transporters; details: for Potency (rank-order of potency of binding; S = hSERT, N = hNET, D = hDAT): from KD values; for Potency Range (difference between most potent and least potent binding): ratio of KD over hSERT, hNET, hDAT
Excerpt: The program was modified to calculate the Hill coefficient (nH). Data are presented as geometric mean±S.E.M. of at least three independent experiments. One-component models and two-component models were compared using the root mean square error of each fit and the F test.

[2] = system: human serotonin, norepinephrine and dopamine transporters; test: Transport into cells expressing human transporters: rank order of potency, comparison with rat; assay type: cell-based; details: for Potency (rank order, transport into cells expressing human transporters): from Ki values, S = 5-HT, N = NE, D = DA; for Species selectivity: blocking transport by human vs rat serotonin and dopamine transporters: human transporters in cells vs rat synaptosomal preparations (Tables 3 and 4)
[3] = target: T2, rat serotonin transporter, synaptosomal preparations (Rattus norvegicus, UniProt P31652); test: Inhibition of [3H]5-HT reuptake in rat brain synaptosomes (frontal cortex); assay type: biochemical
T2 construct: from tissue; host or cells: rat frontal cortex synaptosomes (male Sprague-Dawley)
T2 sequence (P31652 whole entry): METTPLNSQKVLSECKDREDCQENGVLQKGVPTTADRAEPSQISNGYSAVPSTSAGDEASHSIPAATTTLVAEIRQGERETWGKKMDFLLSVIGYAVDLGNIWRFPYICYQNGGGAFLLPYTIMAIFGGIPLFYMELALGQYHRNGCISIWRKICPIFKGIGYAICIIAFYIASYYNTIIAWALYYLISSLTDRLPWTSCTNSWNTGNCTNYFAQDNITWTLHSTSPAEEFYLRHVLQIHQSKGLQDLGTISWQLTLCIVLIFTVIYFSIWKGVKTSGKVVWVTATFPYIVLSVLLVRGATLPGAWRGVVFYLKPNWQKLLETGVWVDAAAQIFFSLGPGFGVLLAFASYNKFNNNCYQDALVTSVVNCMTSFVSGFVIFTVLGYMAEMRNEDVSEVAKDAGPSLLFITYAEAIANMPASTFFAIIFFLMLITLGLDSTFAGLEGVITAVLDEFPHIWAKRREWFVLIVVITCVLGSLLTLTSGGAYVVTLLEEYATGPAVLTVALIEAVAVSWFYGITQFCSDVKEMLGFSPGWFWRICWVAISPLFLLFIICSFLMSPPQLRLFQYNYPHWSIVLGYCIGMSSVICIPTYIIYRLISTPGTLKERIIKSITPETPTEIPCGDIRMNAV
Procedure: (§1) The dissected tissues were separately homogenized in 20 volumes (cortical) or 40 volumes (striatal) of ice-cold, oxygenated HEPES buffer 0.32 M sucrose containing 11 mM glucose (pH 7.4) in a glass Potter-Elvehjem homogenizer with Teflon® pestle (8 strokes, 900 rpm). The homogenates were centrifuged at 1,000×g for 10 minutes. The resulting supernatant was decanted and further centrifuged at 20,000×g for 20 minutes at 4° C. […] The synaptosomal protein concentration was determined by using the BCA assay (Pierce Biotechnology Inc, Rockford, Ill.), according to the manufacturer's instructions. Synaptosomal protein (1.0-2.5 mg) was suspended in 1 mL oxygenated incubation buffer as defined above. Test amine compound was pre-incubated with the synaptosomal preparation for 30 minutes at 37° C. in a shaking water bath (80 oscillations/minute).

[4] = target: T3, rat norepinephrine transport, synaptosomal preparations (Rattus norvegicus, UniProt Q63380); test: Inhibition of [3H]NE reuptake in rat brain synaptosomes (occipital cortex); assay type: biochemical
T3 construct: from tissue; host or cells: rat occipital cortex synaptosomes (male Sprague-Dawley)
T3 sequence (Q63380 1-617): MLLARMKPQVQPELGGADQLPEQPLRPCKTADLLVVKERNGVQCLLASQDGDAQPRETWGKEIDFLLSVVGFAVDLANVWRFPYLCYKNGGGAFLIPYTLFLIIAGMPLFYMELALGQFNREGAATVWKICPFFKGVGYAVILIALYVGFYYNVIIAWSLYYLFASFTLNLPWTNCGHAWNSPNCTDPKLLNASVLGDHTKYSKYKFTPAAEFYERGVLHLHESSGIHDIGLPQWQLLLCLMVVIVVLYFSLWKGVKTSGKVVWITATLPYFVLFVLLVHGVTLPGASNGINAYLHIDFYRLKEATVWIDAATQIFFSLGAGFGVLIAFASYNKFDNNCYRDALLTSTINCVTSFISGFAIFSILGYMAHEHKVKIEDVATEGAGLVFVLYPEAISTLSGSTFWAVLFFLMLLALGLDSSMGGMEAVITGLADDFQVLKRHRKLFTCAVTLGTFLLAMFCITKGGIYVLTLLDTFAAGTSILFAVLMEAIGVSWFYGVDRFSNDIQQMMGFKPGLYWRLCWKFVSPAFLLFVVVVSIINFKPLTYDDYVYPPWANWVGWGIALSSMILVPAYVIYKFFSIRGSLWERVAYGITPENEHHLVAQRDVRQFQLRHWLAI
Procedure: as §1

male C57BL/6J mice = test: Tail suspension test (TST) in mice; assay type: in vivo, mouse; details: for Duration of immobility in TST vs saline: 5 mg/kg IP, FIG. 10E
Procedure: When mice are suspended by their tail, there is an initial period of agitation, followed by immobility. This test identifies antidepressant compounds, which decrease the duration of immobility.
Test compounds were prepared by formulating the compounds with a pharmaceutically acceptable carrier such as saline. […] Each mouse was then subjected to the tail-suspension test (TST). Each mouse (n>3) was suspended by its tail 45 cm above the table top with the use of adhesive tape placed 1 cm from the tip of its tail. Behavior was scored every 5 seconds throughout the 6-minute test as either mobile or immobile (FIG. 10A-D) or total duration of immobility during the 6-minute test (FIGS. 10E and 10H). Mice were considered immobile only when hanging passively and completely motionless. Scores for each behavior were expressed as total counts per 6-minute session.

[5] = target: human norepinephrine transporter (Homo sapiens, UniProt P23975); test: Inhibition of [3H]NE transport into HEK-293 cells expressing the human transporter
human norepinephrine transporter, sequence (P23975 whole entry): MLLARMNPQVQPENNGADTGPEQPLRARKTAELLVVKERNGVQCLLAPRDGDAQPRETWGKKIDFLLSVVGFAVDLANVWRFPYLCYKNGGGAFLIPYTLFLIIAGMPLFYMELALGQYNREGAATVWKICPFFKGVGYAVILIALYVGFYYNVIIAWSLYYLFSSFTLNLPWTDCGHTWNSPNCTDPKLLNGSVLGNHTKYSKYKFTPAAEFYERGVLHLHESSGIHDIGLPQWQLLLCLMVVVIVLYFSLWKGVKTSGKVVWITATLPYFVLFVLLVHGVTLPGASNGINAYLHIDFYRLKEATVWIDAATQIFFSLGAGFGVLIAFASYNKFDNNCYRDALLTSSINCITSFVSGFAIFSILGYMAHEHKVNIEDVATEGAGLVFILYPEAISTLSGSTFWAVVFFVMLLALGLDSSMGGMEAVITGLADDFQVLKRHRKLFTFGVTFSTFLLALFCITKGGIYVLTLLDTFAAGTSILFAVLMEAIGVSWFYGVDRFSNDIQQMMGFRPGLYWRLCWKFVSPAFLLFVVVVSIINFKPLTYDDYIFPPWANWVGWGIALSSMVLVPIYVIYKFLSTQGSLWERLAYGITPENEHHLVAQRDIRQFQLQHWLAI

[6] = target: human dopamine transporter (Homo sapiens, UniProt Q01959); test: Inhibition of [3H]DA transport into HEK-293 cells expressing the human transporter
human dopamine transporter, sequence (Q01959 whole entry): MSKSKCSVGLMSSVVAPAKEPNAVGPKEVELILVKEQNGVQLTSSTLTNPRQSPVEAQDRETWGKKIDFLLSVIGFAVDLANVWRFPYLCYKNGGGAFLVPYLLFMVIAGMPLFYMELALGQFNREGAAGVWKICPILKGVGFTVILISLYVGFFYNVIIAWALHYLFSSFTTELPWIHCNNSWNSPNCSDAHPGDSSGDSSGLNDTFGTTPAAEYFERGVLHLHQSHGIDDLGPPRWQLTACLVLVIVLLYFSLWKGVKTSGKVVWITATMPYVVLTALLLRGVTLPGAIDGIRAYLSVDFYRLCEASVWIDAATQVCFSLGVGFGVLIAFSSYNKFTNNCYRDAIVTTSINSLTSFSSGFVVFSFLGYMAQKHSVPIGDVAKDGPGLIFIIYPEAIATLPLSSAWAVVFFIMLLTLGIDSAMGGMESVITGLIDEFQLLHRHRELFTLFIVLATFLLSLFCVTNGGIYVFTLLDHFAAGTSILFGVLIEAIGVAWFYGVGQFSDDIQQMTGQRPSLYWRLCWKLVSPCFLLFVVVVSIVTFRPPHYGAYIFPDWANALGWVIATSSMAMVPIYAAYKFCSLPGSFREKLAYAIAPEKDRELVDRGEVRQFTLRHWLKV

[7] = target: human serotonin transporter (Homo sapiens, UniProt P31645); test: Inhibition of [3H]5-HT transport into HEK-293 cells expressing the human transporter
human serotonin transporter, sequence (P31645 whole entry): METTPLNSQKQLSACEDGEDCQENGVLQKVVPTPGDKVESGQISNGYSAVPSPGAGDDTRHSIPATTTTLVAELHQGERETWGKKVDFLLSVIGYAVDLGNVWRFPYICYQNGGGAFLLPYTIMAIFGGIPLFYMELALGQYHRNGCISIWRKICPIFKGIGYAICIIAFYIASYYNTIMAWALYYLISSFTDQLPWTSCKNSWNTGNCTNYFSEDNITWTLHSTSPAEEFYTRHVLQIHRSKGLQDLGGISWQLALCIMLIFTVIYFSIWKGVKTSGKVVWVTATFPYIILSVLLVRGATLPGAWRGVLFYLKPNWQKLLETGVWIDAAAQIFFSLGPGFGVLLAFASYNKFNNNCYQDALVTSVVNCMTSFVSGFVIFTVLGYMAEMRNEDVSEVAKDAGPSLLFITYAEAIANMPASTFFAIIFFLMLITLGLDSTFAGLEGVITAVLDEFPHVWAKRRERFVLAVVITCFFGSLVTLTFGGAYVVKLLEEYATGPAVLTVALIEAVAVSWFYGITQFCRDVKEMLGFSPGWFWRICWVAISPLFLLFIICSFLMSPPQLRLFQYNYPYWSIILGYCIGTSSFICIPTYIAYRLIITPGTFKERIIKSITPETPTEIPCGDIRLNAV

[8] = mice, 5 and 10 mg/kg IP, 30 minutes before testing
[9] = Geometric Mean ± SEM, HCl salts, read-out: Equilibrium Dissociation Constant (KD) for Transporter Binding, hDAT (D)
[10] = Geometric Mean ± SEM, rat brain synaptosomes, read-out: Inhibitor Constant (Ki), 5HT transport
[11] = Geometric Mean ± SEM, rat brain synaptosomes, read-out: Inhibitor Constant (Ki), NE transport

T1 sequence (Q01959 whole entry): as the sequence (Q01959 whole entry) above

What does the source list for `CNCC(c1ccc2ccccc2c1)C(F)c1ccccc1` (racemic) [MCJ001-F-(±)-RR, (2R,3R/2S,3S)-3-fluoro-N-methyl-2-(naphthalen-2-yl)-3-phenylpropan-1-amine]?
Kd [1]: 140 ± 10 nM; Potency (rank-order of potency of binding; S = hSERT, N = hNET, D = hDAT) (hSERT, hNET, hDAT): S > N > D; Potency Range (difference between most potent and least potent binding) (hSERT, hNET, hDAT): 36 fold; Potency (rank order, transport into cells expressing human transporters) [2]: N > S > D; Ki [3]: 90 ± 7 nM; Ki [4]: 47 ± 5 nM; Immobility in TST (counts per 6-minute session) vs saline (male C57BL/6J mice; mice, 5 and 10 mg/kg IP): significantly (P≦0.016) reduced immobility; Mobility in TST (counts per 6-minute session) vs saline (male C57BL/6J mice; [8]): significantly (P≦0.016) increased mobility; Ki [5]: 2.1 ± 0.5 nM; Ki [6]: 33 ± 1 nM; Ki [7]: 18 ± 3 nM

For `CNC[C@H](c1ccc2ccccc2c1)[C@H](OCCCCCO[C@H](c1ccccc1)[C@H](CNC)c1ccc2ccccc2c1)c1ccccc1` [MCJ001-Dimer5-SS, (2S,2′S,3S,3′S)-3,3′-(pentane-1,5-diylbis(oxy))bis(N-methyl-2-(naphthalen-2-yl)-3-phenylpropan-1-amine)], which Kd [1, 9] is on record?
Its Kd is 113 ± 6 nM.

And the “Potency (rank-order of potency of binding; S = hSERT, N = hNET, D = hDAT)” value (hSERT, hNET, hDAT)?
The value was “D > S > N”.

And the “Potency Range (difference between most potent and least potent binding)” value (hSERT, hNET, hDAT)?
Its value is 1.4 fold.

What about the “Potency (rank order, transport into cells expressing human transporters)” value [2] of the same molecule?
Its value is “S > D > N”.

What about the “Species selectivity: blocking transport by human vs rat serotonin and dopamine transporters” value [2] of the same molecule?
The value was “much more potent at blocking transport by the human serotonin and dopamine transporters”.

And the Ki [3, 10]?
Its Ki is 150 ± 10 nM.

And the Ki [4, 11]?
Its Ki is 200 ± 30 nM.

What about the “Duration of immobility in TST vs saline” value (male C57BL/6J mice; mice) of the same molecule?
The value was “except MCJ002-NH2-SS and MCJ001-Dimer5-SS, significantly reduced the time that the animals were immobile”.

What about the Ki [5] of the same molecule?
The Ki was 720 nM.

What about the Ki [6] of the same molecule?
Its Ki is 52 nM.

And the Ki [7]?
Its Ki is 14 ± 2 nM.

Which results are given for `CNC[C@H](c1ccc2ccccc2c1)[C@@H](F)c1ccccc1` [MCJ001-F-RS, (2S,3R)-3-fluoro-N-methyl-2-(naphthalen-2-yl)-3-phenylpropan-1-amine]?
Kd [1]: 19 ± 2 nM; Binding at hDAT compared to PRC200-SS [1]: Enhanced binding to hDAT; Potency (rank-order of potency of binding; S = hSERT, N = hNET, D = hDAT) (hSERT, hNET, hDAT): N > S > D; Potency Range (difference between most potent and least potent binding) (hSERT, hNET, hDAT): 21 fold; Potency (rank order, transport into cells expressing human transporters) [2]: S > N > D; Ki [3]: 9 ± 1.5 nM; Ki [4]: 9 ± 1 nM; Immobility in TST (counts per 6-minute session) vs saline (male C57BL/6J mice; mice, 1, 2.5, and 5 mg/kg IP, FIG. 10B): significantly (P<0.005) reduced immobility; Mobility in TST (counts per 6-minute session) vs saline (male C57BL/6J mice; mice, 2.5 and 5 mg/kg IP, FIG. 10B): significantly (P<0.005) increased mobility; Ki [5]: 4.8 nM; Ki [6]: 30 ± 5 nM; Ki [7]: 3.5 ± 0.9 nM

What does the source list for `CNC[C@@H](c1ccc2ccccc2c1)[C@H](F)c1ccccc1` [MCJ001-F-SR, (2R,3S)-3-fluoro-N-methyl-2-(naphthalen-2-yl)-3-phenylpropan-1-amine]?
Kd [1]: 36 ± 6 nM; Binding at hDAT compared to PRC200-SS [1]: potently binds to hDAT, in the range of that seen with PRC200-SS; Potency (rank-order of potency of binding; S = hSERT, N = hNET, D = hDAT) (hSERT, hNET, hDAT): D > S > N; Potency (rank-order of potency of binding; S = hSERT, N = hNET, D = hDAT) (hSERT, hNET, hDAT; listed as MCJ001-F—SR): D>S>N; Potency Range (difference between most potent and least potent binding) (hSERT, hNET, hDAT): 12 fold; Ki [3]: 53 ± 12 nM; Ki [4, 11]: 110 ± 20 nM; Immobility in TST (counts per 6-minute session) vs saline (male C57BL/6J mice; mice, 10 mg/kg IP, FIG. 10C): significantly (P<0.033) reduced immobility; Mobility in TST (counts per 6-minute session) vs saline (male C57BL/6J mice; mice, 10 mg/kg IP, FIG. 10C): significantly (P≦0.033) increased mobility; Ki [7]: 150 nM

Which Kd [1, 9] does the source give for `CNC[C@H](c1ccc2ccccc2c1)[C@@H](N=[N+]=[N-])c1ccccc1` [MCJ001-N3-RS, (2S,3R)-3-azido-N-methyl-2-(naphthalen-2-yl)-3-phenylpropan-1-amine] here?
The Kd was 190 ± 20 nM.

What about the “Potency (rank-order of potency of binding; S = hSERT, N = hNET, D = hDAT)” value (hSERT, hNET, hDAT) of the same molecule?
The value was “N > S > D”.

And the “Potency Range (difference between most potent and least potent binding)” value (hSERT, hNET, hDAT)?
Its value is 3.0 fold.

And the “Potency (rank order, transport into cells expressing human transporters)” value [2]?
Its value is “N > S > D”.

And the Ki [3, 10]?
Its Ki is 88 ± 10 nM.

And the Ki [4, 11]?
Its Ki is 56 ± 3 nM.

And the Ki [5]?
Its Ki is 24 ± 4 nM.

What about the Ki [6] of the same molecule?
The Ki was 64 nM.

And the Ki [7]?
Its Ki is 48 ± 10 nM.

Which results are given for `CNC[C@@H](c1ccc2ccccc2c1)[C@H](N=[N+]=[N-])c1ccccc1` [MCJ001-N3-SR, (2R,3S)-3-azido-N-methyl-2-(naphthalen-2-yl)-3-phenylpropan-1-amine]?
Kd [1, 9]: 1440 ± 70 nM; Potency (rank-order of potency of binding; S = hSERT, N = hNET, D = hDAT) (hSERT, hNET, hDAT): S > N > D; Potency Range (difference between most potent and least potent binding) (hSERT, hNET, hDAT): 3.8 fold; Potency (rank order, transport into cells expressing human transporters) [2]: S > D > N; Species selectivity: blocking transport by human vs rat serotonin and dopamine transporters [2]: much more potent at blocking transport by the human serotonin and dopamine transporters; Ki [3, 10]: 640 ± 50 nM; Ki [4, 11]: 250 ± 20 nM; Ki [5]: 1400 nM; Ki [6]: 77 nM; Ki [7]: 46 ± 6 nM

With `CNC[C@H](c1ccc2ccccc2c1)[C@H](OC)c1ccccc1` [MCJ001-OMe-SS, (2S,3S)-3-methoxy-N-methyl-2-(naphthalen-2-yl)-3-phenylpropan-1-amine] as the molecule, how does the Kd [1] read?
Its Kd is 40.6 ± 0.8 nM.

And the “Potency (rank-order of potency of binding; S = hSERT, N = hNET, D = hDAT)” value (hSERT, hNET, hDAT)?
The value was “N > S > D”.

What about the “Potency Range (difference between most potent and least potent binding)” value (hSERT, hNET, hDAT) of the same molecule?
Its value is 29 fold.

What about the “Potency (rank order, transport into cells expressing human transporters)” value [2] of the same molecule?
The value was “N > S > D”.

What about the Ki [3, 10] of the same molecule?
Its Ki is 12.8 ± 0.9 nM.

And the Ki [4, 11]?
Its Ki is 24 ± 2 nM.

What about the “Immobility in TST (counts per 6-minute session) vs saline” value (male C57BL/6J mice; mice, 15 mg/kg orally (gastric gavage), FIG. 10A) of the same molecule?
Its value is “significantly (P<0.02) reduced immobility”.

And the “Immobility in TST (counts per 6-minute session) vs saline” value (male C57BL/6J mice; mice, 5 and 10 mg/kg IP)?
The value was “significantly (P<0.02) reduced immobility”.

And the “Mobility in TST (counts per 6-minute session) vs saline” value (male C57BL/6J mice; [8])?
Its value is “significantly (P<0.02) increased mobility”.

What about the Ki [5] of the same molecule?
Its Ki is 1.2 ± 0.2 nM.

And the Ki [6]?
Its Ki is 21 ± 3 nM.

What about the Ki [7] of the same molecule?
The Ki was 12 ± 2 nM.

What does the source list for `CN(C)C[C@H](c1ccc2ccccc2c1)[C@H](N)c1ccccc1` [MCJ002-NH2-SS, (2S,3S)-N1,N1-dimethyl-2-(naphthalen-2-yl)-3-phenylpropane-1,3-diamine]?
Kd [1]: 4.2 ± 0.2 nM; Binding at hDAT compared to PRC200-SS [1]: several fold more potent binding at hDAT; Occupancy of hDAT binding sites ([1]; when the compound occupies 95% of hSERT binding sites, calculation based on occupancy theory): 92%; Potency (rank-order of potency of binding; S = hSERT, N = hNET, D = hDAT) (hSERT, hNET, hDAT): S > D > N; Potency Range (difference between most potent and least potent binding) (hSERT, hNET, hDAT): 5.3 fold; Duration of immobility in TST vs saline (male C57BL/6J mice; mice): except MCJ002-NH2-SS and MCJ001-Dimer5-SS, significantly reduced the time that the animals were immobile

Source: US8440724B2, “Inhibiting neurotransmitter reuptake” (Mayo Foundation for Medical Education and Research, priority 2008, dated 2013)
